# From patent US20230255953A1, “USE OF ROLUPERIDONE IN PREVENTING RELAPSE IN SCHIZOPHRENIA PATIENTS” (Minerva Neurosciences, Inc., priority 2022, published 2023)
# Tests used:
# Assay type in all cases: in vivo, human
# [1] = system: patients with negative symptoms of schizophrenia; assay: Integrated analysis (pooled ITT): patient disposition, reasons for withdrawal; conditions: for Withdrawn from double-blind period: Adverse event, % / Withdrawn from double-blind period: Death, % / Withdrawn from double-blind period: Lack of efficacy, %: DB
# Procedure: The Efficacy data from Study Nos. 1 and 2 were pooled. The majority of patients in the pooled ITT population completed the DB period (502 patients overall, 66.3%), with similar rates in each treatment group (placebo: 69.8%, 32 mg Roluperidone: 65.3%, and 64 mg Roluperidone: 63.8%) (Table 12). The majority (62.7%) of those who completed the DB period entered the OL period. The most common reason for discontinuation during the DB period among patients overall was withdrawal of consent (15.6%), followed by adverse events (7.3%) and lack of efficacy (5.4%) (Table 12). […] Approximately twice as many patients in the Roluperidone groups (32 mg: 8.5%; 64 mg: 9.1%) discontinued due to adverse events compared with patients in the placebo group (4.3%). More patients in the placebo group discontinued due to lack of efficacy (6.7%) than in the Roluperidone groups (32 mg: 4.4%; 64 mg: 5.1%). The low number of patients who discontinued due to lack of efficacy or withdrawal of consent probably reflects a low level of worsening of positive symptoms.
# A similar proportion of patients in each OL treatment group entered the OL period from the DB period (range: 61.3% to 65.6%) (Table 13). The most common reason for discontinuation in the OL period among patients was withdrawal of consent (93 patients, 12.3%), followed by adverse event (45 patients, 5.9%) and lack of efficacy (16 patients, 2.1%).
# [2] = system: patients with negative symptoms of schizophrenia; assay: Study #1 (MIN-101C03): Brief Negative Symptoms Scale (BNSS); conditions: Week 12 DB, ITT
# Source text: As used herein, “BNSS” is the Brief Negative Symptom Scale. “BNSS” is 13-item instrument designed to measure negative symptoms, specifically: blunted affect, alogia, asociality, anhedonia, and avolition (Kirkpatrick, et al., “The Brief Negative Symptom Scale: Psychometric Properties,” Schizophr. Bull., 2011, 37(2), 300-5.).
# Phase 2b Study #1 (also referred to herein as “MIN-101C03”) was a Phase 2b, double-blind (“DB”), placebo-controlled, randomized, multicenter 12-week study to evaluate the efficacy, safety, and tolerability of Roluperidone in patients ≥18 years to ≤60 years with negative symptoms of schizophrenia, followed by a 24-week open-label (“OL”) extension. The primary objective of the study was to evaluate the efficacy of Roluperidone compared to placebo in improving the negative symptoms of schizophrenia as measured by the change from Baseline in the PANSS negative factor score of the PSM (“PANSS PSM”) over 12 weeks of treatment.
# The study consisted of a pretreatment screening period of up to 28 days (including washout), a 12-week, DB, placebo-controlled period, and a 24-week OL period. Eligible patients (who were symptomatically stable for at least 3 months and had scores of at least 20 on the PANSS negative subscale score) were randomized in a 1:1:1 ratio to receive oral Roluperidone (a modified-release, “MR”, formulation) 32 mg QD, Roluperidone 64 mg QD, or placebo for 12 weeks. […] During the 24-week, OL treatment extension period, patients who were initially randomized to Roluperidone 32 mg or 64 mg continued on the same dose, while patients who were initially randomized to placebo crossed over to Roluperidone 32 mg or 64 mg in a 1:1 ratio.
# [3] = system: patients with negative symptoms of schizophrenia; assay: Study #2 (MIN-101C07): Total Verbal Fluency; conditions: Week 12 DB, ITT
# Source text: Study #2 (also referred to as “MIN101C07”) was a Phase 3, randomized, DB, placebo-controlled, parallel-group 12-week study to evaluate the efficacy and safety of Roluperidone in patients ≥18 years to ≤55 years with negative symptoms of schizophrenia, followed by a 40-week OL extension. The study consisted of a pretreatment screening period of up to 28 days (including an antipsychotic medication washout period), a 12-week, DB, placebo-controlled period, and a 40-week OL period. Eligible patients (with moderate to severe negative symptoms of schizophrenia and stable positive symptoms but without severe symptoms of suspiciousness, agitation, hostility, uncooperativeness, or poor impulse control) were randomized 1:1:1 to receive Roluperidone 32 mg QD, Roluperidone 64 mg QD (GR01/B formulation, see U.S. Pat. No. 11,464,744), or placebo, orally, for 12 weeks. […] During the 40-week OL treatment extension, patients who were initially randomized to Roluperidone 32 mg or 64 mg continued treatment with the same dose, while patients who were initially randomized to placebo crossed over to Roluperidone 32 mg or 64 mg in a 1:1 ratio.
# [4] = Placebo in DB to 32 mg in OL (N = 128)
# [5] = Placebo in DB to 64 mg in OL (N = 127)
# [6] = Placebo in DB to Roluperidone in OL, Total (N = 255)
# [7] = Roluperidone at Any Time 32 mg (N = 376)
# [8] = Roluperidone at Any Time 64 mg (N = 381)
substance,measurement,setting,value
"1H-Isoindol-1-one,2-[ [1-[2-(4-fluorophenyl)-2-oxoethyl]-4-piperidinyl]methyl]-2,3-dihydro-, hydrochloride, hydrate (1:1:2) [Roluperidone]","Withdrawn from double-blind period: Adverse event, %",[1]; 32 mg (N = 248),8.5%
same,"Withdrawn from double-blind period: Death, %",[1]; 32 mg (N = 248),0.4%
same,"Withdrawn from double-blind period: Lack of efficacy, %",[1]; 32 mg (N = 248),4.4%
same,"Withdrawn from double-blind period: Adverse event, %",[1]; 64 mg (N = 254),9.1%
same,"Withdrawn from double-blind period: Lack of efficacy, %",[1]; 64 mg (N = 254),5.1%
same,"Withdrawn from OL period: Adverse event, %",[1]; [4],(6.3) %
same,"Withdrawn from OL period: Lack of efficacy, %",[1]; [4],(3.1) %
same,"Withdrawn from OL period: Adverse event, %",[1]; [5],(3.9) %
same,"Withdrawn from OL period: Lack of efficacy, %",[1]; [5],(1.6) %
same,"Withdrawn from OL period: Adverse event, %",[1]; [6],(5.1) %
same,"Withdrawn from OL period: Lack of efficacy, %",[1]; [6],(2.4) %
same,"Withdrawn from double-blind period: Adverse event, %",[1]; Roluperidone Total (N = 502),8.8%
same,"Withdrawn from double-blind period: Death, %",[1]; Roluperidone Total (N = 502),0.2%
same,"Withdrawn from double-blind period: Lack of efficacy, %",[1]; Roluperidone Total (N = 502),4.8%
same,"Withdrawn from OL period: Adverse event, %",[1]; [7],(5.6) %
same,"Withdrawn from OL period: Lack of efficacy, %",[1]; [7],(2.1) %
same,"Withdrawn from OL period: Adverse event, %",[1]; [8],(6.3) %
same,"Withdrawn from OL period: Lack of efficacy, %",[1]; [8],(2.1) %
same,Change from Baseline LS Mean: Brief Negative Symptoms Scale Total Score,[2]; 32 mg QD,−5.44
same,Effect Size vs Placebo: Brief Negative Symptoms Scale Total Score,[2]; 32 mg QD,0.33
same,Change from Baseline LS Mean: Brief Negative Symptoms Scale Total Score,[2]; 64 mg QD,−6.94
same,Effect Size vs Placebo: Brief Negative Symptoms Scale Total Score,[2]; 64 mg QD,0.56
same,Change from Baseline LS Mean: Total Verbal Fluency (sum of 3 trials),[3]; 32 mg QD,3.9
same,Effect Size (Cohen's d) vs Placebo: Total Verbal Fluency,[3]; 32 mg QD,0.21
same,Change from Baseline LS Mean: Total Verbal Fluency (sum of 3 trials),[3]; 64 mg QD,1.7
same,Effect Size (Cohen's d) vs Placebo: Total Verbal Fluency,[3]; 64 mg QD,−0.10
